Assay results published in patent US7132420B2, “Aspartic protease inhibitors” (The United States of America as represented by the …, priority 1999, dated 2006).
Read-outs that look alike come from different tables or passages of the source.

Columns and labels:
HIV-1 protease = HIV-1 protease (Human immunodeficiency virus type 1 group M subtype B, UniProt P04585); test: HIV protease assay (Ki); format: biochemical; conditions: for HIV-1 protease % inhibition: Table 1 Ki column
Description: (§1) This example illustrates the HIV-1 protease inhibition activity (Ki), HIV-1 antiviral data (EC50), and the toxicity against normal cells (IC50), for particular compounds of formula (I). The HIV protease assay was done according to the protocol described in Kageyama et al, Antimicrob. Agents Chemother., 37, 272 (1993). The HIV antiviral assay was done according to the protocol described in Weislow et al., J. National Cancer Inst. 81, 577 (1989).
(§2) The HIV protease assay was done according to the protocol described in Example 35. The plasmepsin II assay was done according to the protocol used in Silva et al., Proc. Nat. Acad. Sci. USA, 93, pp. 10034–10039, September 1996 (Biochemstry). The cathepsin D assay was done according to the protocol described in Gulnik et al., FEBS Letters, 413, 379–384 (1997). The compounds illustrated in Table 2 are of the general formula (II), as described in Example 35.

cathepsin D = cathepsin D (Homo sapiens, UniProt P07339); test: cathepsin D assay (Ki); format: biochemical; conditions: Table 2; read-out: Cath D Ki
Description: as §2

plasmepsin II = plasmepsin II (Plasmodium falciparum, UniProt P46925); test: biochemical; format: biochemical; conditions: Table 2; read-out: Pls II Ki
Description: as §2

HIV-1 = test: HIV antiviral assay (EC50); format: cell-based
Description: The HIV protease assay was done according to the protocol described in Kageyama et al, Antimicrob. Agents Chemother., 37, 272 (1993). The HIV antiviral assay was done according to the protocol described in Weislow et al., J. National Cancer Inst. 81, 577 (1989).

normal cells = test: toxicity against normal cells (IC50); format: cell-based
Description: as §1

[1] = Table 1, in nM, read-out: HIV-1 Ki
[2] = Human immunodeficiency virus 1, Table 1

Chain of cathepsin D (P07339 65-412): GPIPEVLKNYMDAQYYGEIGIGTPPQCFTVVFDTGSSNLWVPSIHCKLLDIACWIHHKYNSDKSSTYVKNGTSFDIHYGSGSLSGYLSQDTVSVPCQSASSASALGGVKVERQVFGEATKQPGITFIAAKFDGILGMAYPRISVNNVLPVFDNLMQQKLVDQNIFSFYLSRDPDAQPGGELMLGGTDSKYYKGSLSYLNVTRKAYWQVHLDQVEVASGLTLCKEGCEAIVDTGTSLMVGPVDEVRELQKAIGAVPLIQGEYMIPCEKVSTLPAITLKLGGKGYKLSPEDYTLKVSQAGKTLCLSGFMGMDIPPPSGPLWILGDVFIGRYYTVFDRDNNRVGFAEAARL
Chain of plasmepsin II (P46925 125-453): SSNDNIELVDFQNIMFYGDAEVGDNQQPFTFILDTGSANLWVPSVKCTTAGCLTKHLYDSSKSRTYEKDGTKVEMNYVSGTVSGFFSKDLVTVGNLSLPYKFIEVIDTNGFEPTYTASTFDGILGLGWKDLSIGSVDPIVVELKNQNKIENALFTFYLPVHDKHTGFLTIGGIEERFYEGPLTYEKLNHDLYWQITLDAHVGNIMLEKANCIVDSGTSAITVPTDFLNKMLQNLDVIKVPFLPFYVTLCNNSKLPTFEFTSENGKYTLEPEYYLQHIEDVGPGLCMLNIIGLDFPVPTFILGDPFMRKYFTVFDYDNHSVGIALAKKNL

SMILES	Ki (HIV-1 protease; Table 1, read-out: HIV-1 Ki) [nM]	EC50 (HIV-1; Table 1) [nM]	IC50 (normal cells; Table 1) [nM]	also measured
Cc1cccc(C)c1OCC(=O)N[C@@H](Cc1ccccc1)[C@@H](O)C[C@H](CC(C)C)NC(=O)OC(C)(C)C [(15), (2S,3S,5S)-5-[N-tert-butyloxycarbonylamino]-2-[N-[2-(2,6-dimethylphenoxy)acetyl]amino]-3-hydroxy-7-methyl-1-phenyloctane]	–	–	–	Ki (HIV-1 protease): 0.009 nM; Ki (HIV-1 protease; read-out: HIV-1 Ki, Table 2): 0.009 nM; Ki (cathepsin D): 6.1 nM; Ki (plasmepsin II): 210 nM
CC(C)C[C@@H](C[C@H](O)[C@H](Cc1ccccc1)NC(=O)OCc1ccccc1)NC(=O)[C@H](C(C)C)N1CCCNC1=O [(18)]	0.065 ± 0.016	600	> 100000	–
Cc1cccc(C)c1OCC(=O)N[C@@H](Cc1ccccc1)[C@@H](O)C[C@H](Cc1ccccc1)NC(=O)[C@H](C(C)C)N1CCCNC1=O [(24), reference compound]	0.013	41	> 100000	Ki (HIV-1 protease; Table 2, read-out: HIV-1 Ki): 0.012 nM; EC50 (HIV-1; Table 2): 41 nM; IC50 (normal cells; Table 2): > 100000 nM; Ki (cathepsin D): 1960 nM; Ki (plasmepsin II): 3500 nM
Cc1cccc(C)c1OCC(=O)N[C@@H](Cc1ccccc1)[C@@H](O)C[C@H](CC(C)C)NC(=O)N1CCOCC1 [(27)]	–	> 50000	–	Ki (HIV-1 protease; [1]): 37 nM; Ki (HIV-1 protease; Table 2, read-out: HIV-1 Ki): 0.37 nM; EC50 (HIV-1; Table 2): > 50000 nM; Ki (cathepsin D): 6.1 nM; Ki (plasmepsin II): 76 nM
Cc1cccc(C)c1OCC(=O)N[C@@H](Cc1ccccc1)[C@@H](O)C[C@H](CC(C)C)NC(=O)[C@@H]1CCNC(=O)N1 [(29), (2S,3S,5S)-2-[N-[2-(2,6-dimethylphenoxy)acetyl]amino]-5-[N-[2S-(2-oxopyrimidinyl)-4-carbonyl]amino]-3-hydroxy-7-methyl-1-phenyloctane]	–	–	–	Ki (HIV-1 protease; [1]): 16 nM; Ki (HIV-1 protease; Table 2, read-out: HIV-1 Ki): 0.16 nM; HIV-1 EC50 (μM) (HIV-1; Table 1): in-active; HIV-1 EC50 (μM) (HIV-1; Table 2): notactive; Ki (cathepsin D): 305 nM; Ki (plasmepsin II): 3500 nM
CC(C)C[C@@H](C[C@H](O)[C@H](Cc1ccccc1)NC(=O)OCc1ccccc1)NC(=O)[C@@H](C(C)C)N1CCCNC1=O [(33)]	–	–	–	HIV-1 protease % inhibition (HIV-1 protease; @0.5 μM): 38%; HIV-1 protease % inhibition (HIV-1 protease; @1 μM): 65%
CC(C)C[C@@H](C[C@H](O)[C@H](Cc1ccccc1)NC(=O)N1CCOCC1)NC(=O)[C@H](C(C)C)N1CCCNC1=O [(36)]	0.571	2000	> 100000	–
Cc1c(O)cccc1C(=O)N[C@@H](Cc1ccccc1)[C@@H](O)C[C@H](CC(C)C)NC(=O)[C@H](C(C)C)N1CCCNC1=O [(37), (2S,3S,5S)-2-[N-(3-hydroxy-2-methylbenzoyl)amino]-5-[N-[[3-methyl-2S-(2-oxo-tetrahydropyrimidin-1-yl)]butyryl]amino]-3-hydroxy-7-methyl-1-phenyloctane]	0.104 ± 0.01	200	> 10000	–
Cc1cccc(C)c1OCC(=O)N[C@@H](CC(C)C)C[C@H](O)[C@H](Cc1ccccc1)NC(=O)OCc1ccccc1 [(40), (2S,3S,5S)-2-[N-(benzyloxycarbonyl)amino]-5-[N-[2-(2,6-dimethylphenoxy)acetyl]amino]-3-hydroxy-7-methyl-1-phenyloctane]	0.197	–	–	HIV-1 EC50 (μM) (HIV-1; Table 1): inactive
Cc1cccc(C)c1OCC(=O)N[C@@H](CC(C)C)C[C@H](O)[C@H](Cc1ccccc1)NC(=O)O[C@H]1CCOC1 [(41), (2S,3S,5S)-5-[N-[2-(2,6-dimethylphenoxy)acetyl]amino]-2-[N-(3S-terahydrofuranyloxycarbonyl]amino]-3-hydroxy-7-methyl-1-phenyloctane]	0.222	> 1000	> 100000	–
Cc1cccc(C)c1OCC(=O)N[C@@H](CC(C)C)C[C@H](O)[C@H](Cc1ccccc1)NC(=O)c1cccc(O)c1C [(42), (2S,3S,5S)-5-[N-[2-(2,6-dimethylphenoxy)acetyl]amino]-2-[N-(3-hydroxy-2-methylbenzoyl)amino]-3-hydroxy-7-methyl-1-phenyloctane]	–	–	> 100000	Ki (HIV-1 protease): 0.311 nM; EC50 (HIV-1; [2]): 750 nM
CC(C)CC(CC(O)C(Cc1ccccc1)NC(=O)C(C(C)C)N1CCCNC1=O)NC(=O)OC(C)(C)C (centres unmarked) [(44)]	1.49	–	–	HIV-1 EC50 (μM) (HIV-1; Table 1): in-active
Cc1cccc(C)c1OCC(=O)N[C@@H](Cc1ccccc1)[C@@H](O)C[C@H](CC(C)C)NC(=O)C1CCCN(C(=O)OCc2ccccc2)C1 (some centres unmarked) [(47)]	1.5 ± 0.066	–	–	–
Cc1cccc(C)c1OCC(=O)N[C@@H](Cc1ccccc1)[C@@H](O)C[C@H](CC(C)C)NC(=O)C1CCN(C(=O)OCc2ccccc2)CC1 [(48)]	–	–	–	Ki (HIV-1 protease; [1]): 113 nM
Cc1cccc(C)c1OCC(=O)N[C@@H](Cc1ccccc1)[C@@H](O)C[C@H](CC(C)C)NC(=O)[C@@H](N)C(C)C [(49)]	–	8000	> 100000	Ki (HIV-1 protease; [1]): 4 nM
CC(=O)N[C@H](C(=O)N[C@@H](CC(C)C)C[C@H](O)[C@H](Cc1ccccc1)NC(=O)COc1c(C)cccc1C)C(C)C [(50)]	0.014	300	> 100000	–

SMILES	Ki (HIV-1 protease; Table 1, read-out: HIV-1 Ki) [nM]	EC50 (HIV-1; Table 1) [nM]	IC50 (normal cells; Table 1) [nM]	also measured
Cc1cccc(C)c1OCC(=O)N[C@@H](Cc1ccccc1)[C@@H](O)C[C@H](CC(C)C)NC(=O)[C@@H](NS(C)(=O)=O)C(C)C [(51), (2S,3S,5S)-2-[N-[2-(2,6-dimethylphenoxy)acetyl]amino]-5-[N-[[N′-(methylsulfonyl)]valinyl]amino]-3-hydroxy-7-methyl-1-phenyloctane]	0.034	700	> 100000	–
COc1ccc(C(=O)N[C@H](C(=O)N[C@@H](CC(C)C)C[C@H](O)[C@H](Cc2ccccc2)NC(=O)COc2c(C)cccc2C)C(C)C)cc1 [(52), (2S,3S,5S)-2-[N-[2-(2,6.-dimethylphenoxy)acetyl]amino]-5-[N-[[N′-(p-methoxyphenylcarbonyl)]valinyl]amino]-3-hydroxy-7-methyl-1-phenyloctane]	0.03	200	> 93000	–
CC(C)(C)OC(=O)N[C@@H](Cc1ccccc1)C[C@H](O)[C@H](Cc1ccccc1)NC(=O)OCc1ccccc1 [(53), reference compound]	–	> 10000	> 100000	Ki (HIV-1 protease; [1]): 1 nM
COc1ccc(S(=O)(=O)N[C@H](C(=O)N[C@@H](CC(C)C)C[C@H](O)[C@H](Cc2ccccc2)NC(=O)COc2c(C)cccc2C)C(C)C)cc1 [(54)]	0.0068	200	84000	–
Cc1cccc(C)c1OCC(=O)N[C@@H](Cc1ccccc1)[C@@H](O)C[C@H](CC(C)C)NC(=O)CC(C)C [(55)]	–	10000	> 100000	Ki (HIV-1 protease; [1]): 1.5 nM
Cc1cccc(C)c1OCC(=O)N[C@@H](Cc1ccccc1)[C@@H](O)C[C@H](CC(C)C)NC(=O)[C@H](C)NC(=O)OCc1ccccc1 [(56), (2S,3S,5S)-5-[N-[N′-(benzyloxycarbonyl)alaninyl]amino]-2-[N-[2-(2,6-dimethylphenoxy)acetyl]amino]-3-hydroxy-7-methyl-1-phenyloctane]	0.195	1000	> 100000	–
Cc1cccc(C)c1OCC(=O)N[C@@H](Cc1ccccc1)[C@@H](O)C[C@H](CC(C)C)NC(=O)OCc1cncs1 [(57), (2S,3S,5S)-2-[N-[2-(2,6-dimethylphenoxy)acetyl]amino]-5-[N-[(thiazol-5-yl-methoxy)carbonyl]amino]-3-hydroxy-7-methyl-1-phenyloctane]	–	–	10000	Ki (HIV-1 protease): 0.094 nM; EC50 (HIV-1; [2]): 1000 nM
Cc1cccc(C)c1OCC(=O)N[C@@H](Cc1ccccc1)[C@@H](O)C[C@H](CC(C)C)NC(=O)c1cccc(O)c1 [(58)]	–	2000	10000	Ki (HIV-1 protease; [1]): 1.2 nM
CC(C)C[C@@H](C[C@H](O)[C@H](Cc1ccccc1)NC(=O)CNC(=O)OCc1ccccc1)NC(=O)c1cccc(O)c1 [(59)]	–	> 10000	–	Ki (HIV-1 protease; [1]): 108 nM
CC(C)C[C@@H](C[C@H](O)[C@H](Cc1ccccc1)NC(=O)[C@H](C)NC(=O)OCc1ccccc1)NC(=O)c1cccc(O)c1 [(61)]	–	> 10000	–	Ki (HIV-1 protease; [1]): 2 nM
CC[C@H](C)[C@H](NC(=O)OCc1ccccc1)C(=O)N[C@@H](Cc1ccccc1)[C@@H](O)C[C@H](CC(C)C)NC(=O)c1cccc(O)c1 [(62)]	0.157	1400	> 10000	Ki (HIV-1 protease; Table 2, read-out: HIV-1 Ki): 0.157 nM; Ki (plasmepsin II): 1.2 nM
Cc1cccc(C)c1OCC(=O)N[C@@H](Cc1ccccc1)[C@@H](O)C[C@H](CC(C)C)NC(=O)[C@H](CC(N)=O)NC(=O)c1ccc2ccccc2n1 [(65)]	0.0382	–	–	–
CC(C)C[C@@H](C[C@H](O)[C@H](Cc1ccccc1)NC(=O)[C@H](Cc1ccccc1)NC(=O)OCc1ccccc1)NC(=O)c1cccc(O)c1 [(67)]	–	–	–	HIV-1 EC50 (μM) (HIV-1; Table 1): not active; Ki (plasmepsin II): 17 nM
Cc1cccc(C)c1OCC(=O)NC(Cc1ccccc1)C(O)CC(CC(C)C)NC(=O)C(C(C)C)N1CCCN(C)C1=O (centres unmarked) [(68)]	–	–	5000	–
CC(C)C[C@@H](C[C@H](O)[C@H](Cc1ccccc1)NC(=O)[C@@H](NC(=O)OCc1ccccc1)C(C)C)NC(=O)c1cccc(O)c1 [Compound (60)]	0.198	910	> 10000	Ki (HIV-1 protease; Table 2, read-out: HIV-1 Ki): 0.198 nM; Ki (plasmepsin II): 2.4 nM
